{"source": "paper PMC11062899", "about": "“De novo development of small cyclic peptides that are orally bioavailable” (Nature Chemical Biology, 2023)", "key": {"human α-thrombin": {"biological_target": "human α-thrombin (Homo sapiens, UniProt P00734)", "test": "Protease inhibition, Ki for human α-thrombin (fluorogenic substrate Z-Gly-Gly-Arg-AMC)", "type": "biochemical", "details": "replicates R1-R3", "summary_of_the_method": "(§1)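 Ki values come from Cheng–Prusoff correction of IC50, itself fitted by four-parameter logistic regression of activity versus a no-peptide control. Assays used 2 nM human or 3 nM rat thrombin, 50 μM Z-Gly-Gly-Arg-AMC, 30 min kinetic fluorescence at 25 °C.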"}, "rat α-thrombin": {"biological_target": "T1, rat α-thrombin (Rattus norvegicus, UniProt P18292)", "T1 construct": "rat α-thrombin (Molecular Innovations) were used at final concentrations of 2 nM and 3 nM; purchased Molecular Innovations", "test": "Protease inhibition, Ki for rat α-thrombin (fluorogenic substrate Z-Gly-Gly-Arg-AMC)", "type": "biochemical", "details": "replicates R1-R3", "summary_of_the_method": "as §1"}, "porcine pepsin": {"biological_target": "T2, porcine pepsin (Sus scrofa, UniProt P00791)", "T2 construct": "0.32 g of porcine pepsin (Sigma-Aldrich, P7125) was dissolved under gentle agitation; purchased Sigma-Aldrich P7125", "T2 sequence (P00791 60-385)": "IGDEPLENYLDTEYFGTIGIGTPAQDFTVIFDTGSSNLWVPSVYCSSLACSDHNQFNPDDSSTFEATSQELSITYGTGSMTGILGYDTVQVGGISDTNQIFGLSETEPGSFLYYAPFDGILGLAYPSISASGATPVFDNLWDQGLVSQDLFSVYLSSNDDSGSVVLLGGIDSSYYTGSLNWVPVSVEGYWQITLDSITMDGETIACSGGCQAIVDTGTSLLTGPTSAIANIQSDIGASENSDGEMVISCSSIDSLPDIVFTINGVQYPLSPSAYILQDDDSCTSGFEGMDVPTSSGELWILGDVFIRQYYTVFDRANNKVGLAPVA", "test": "Peptide stability in simulated gastric fluid (SGF)", "type": "in vitro ADME", "summary_of_the_method": "(§2)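 Peptide from a 1 mM DMSO stock was added to fluid pre-warmed at 37 °C. SGF was pH 1.2 NaCl with porcine pepsin (0.32 g per 100 ml), and SIF was pH 6.8 potassium phosphate with porcine pancreatin (1 g per 100 ml). Supernatant peptide was quantified by LC–MS, with residual expressed as T1/T0.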"}, "[1]": {"test": "Peptide stability in simulated intestinal fluid (SIF)", "type": "in vitro ADME, porcine", "details": "simulated gi fluid; 8 h, 37 °C, pH 6.8; read-out: Proteolytic stability: SIF (8 h) % remaining", "summary_of_the_method": "as §2"}, "porcine pancreatin": {"tested_on": "porcine pancreatin", "test": "Peptide stability in simulated intestinal fluid (SIF)", "type": "in vitro ADME", "details": "after 8 h vs 0 h (TIC); average of R1-R3", "summary_of_the_method": "as §2"}, "[2]": {"test": "Passive artificial membrane permeability (PAMPA)"}, "[3]": {"test": "Metabolic stability in rat liver microsomes (RLMs)", "details": "rat, microsomes"}, "[4]": {"details": "peptide 1.33E+02 uM, slope of proteolytic substrate cleavage over time"}}, "note": "Where “and” joins values, the source holds several entries; their conditions need not be identical. Equal entries are not always repeated.", "data": [{"compound": "O=C1CC2CCN(CC2)C(=O)[C@H](Cc2ccccc2)NC(=O)[C@@H](NC(=O)c2ccc(Cl)s2)CSCCS(=O)(=O)CCSCCN1", "note": "[compound 13]", "values": [{"measurement": "Human alpha thrombin inhibition, slope normalized to DMSO", "setting": "human α-thrombin; peptide 1.02E-03 uM", "result": "98.5 and 92.4 and 98.3"}, {"measurement": "Human alpha thrombin inhibition, slope normalized to DMSO", "setting": "human α-thrombin; peptide 1.04E+00 uM", "result": "56.0 and 56.7 and 59.7"}, {"measurement": "Human alpha thrombin inhibition, slope normalized to DMSO", "setting": "human α-thrombin; peptide 1.27E-04 uM", "result": "96.6 and 96.4 and 97.8"}, {"measurement": "Human alpha thrombin inhibition, slope normalized to DMSO", "setting": "human α-thrombin; peptide 1.30E-01 uM", "result": "89.4 and 79.1 and 90.0"}, {"measurement": "Human alpha thrombin inhibition, slope normalized to DMSO", "setting": "human α-thrombin; [4]", "result": "3.8 and 5.6 and 7.2"}, {"measurement": "Human alpha thrombin inhibition, slope normalized to DMSO", "setting": "human α-thrombin; peptide 1.63E-02 uM", "result": "96.8 and 95.2 and 98.6"}, {"measurement": "Human alpha thrombin inhibition, slope normalized to DMSO", "setting": "human α-thrombin; peptide 1.67E+01 uM", "result": "11.2 and 13.1 and 6.6"}, {"measurement": "Human alpha thrombin inhibition, slope normalized to DMSO", "setting": "human α-thrombin; peptide 2.03E-03 uM", "result": "96.1 and 91.3 and 98.5"}, {"measurement": "Human alpha thrombin inhibition, slope normalized to DMSO", "setting": "human α-thrombin; peptide 2.08E+00 uM", "result": "44.5 and 43.9 and 46.9"}, {"measurement": "Human alpha thrombin inhibition, slope normalized to DMSO", "setting": "human α-thrombin; peptide 2.54E-04 uM", "result": "98.7 and 101.9 and 92.3"}, {"measurement": "Human alpha thrombin inhibition, slope normalized to DMSO", "setting": "human α-thrombin; peptide 2.60E-01 uM", "result": "82.9 and 76.8 and 85.2"}, {"measurement": "Human alpha thrombin inhibition, slope normalized to DMSO", "setting": "human α-thrombin; peptide 3.18E-05 uM", "result": "98.4 and 99.1 and 103.6"}, {"measurement": "Human alpha thrombin inhibition, slope normalized to DMSO", "setting": "human α-thrombin; peptide 3.26E-02 uM", "result": "83.8 and 90.0 (2×)"}, {"measurement": "Human alpha thrombin inhibition, slope normalized to DMSO", "setting": "human α-thrombin; peptide 3.33E+01 uM", "result": "7.3 and 17.9 and 6.7"}, {"measurement": "Human alpha thrombin inhibition, slope normalized to DMSO", "setting": "human α-thrombin; peptide 4.07E-03 uM", "result": "97.5 and 98.3 and 97.0"}, {"measurement": "Human alpha thrombin inhibition, slope normalized to DMSO", "setting": "human α-thrombin; peptide 4.17E+00 uM", "result": "31.6 and 18.4 and 32.8"}, {"measurement": "Human alpha thrombin inhibition, slope normalized to DMSO", "setting": "human α-thrombin; peptide 5.09E-04 uM", "result": "94.9 and 94.8 and 96.2"}, {"measurement": "Human alpha thrombin inhibition, slope normalized to DMSO", "setting": "human α-thrombin; peptide 5.21E-01 uM", "result": "73.3 and 69.5 and 73.8"}, {"measurement": "Human alpha thrombin inhibition, slope normalized to DMSO", "setting": "human α-thrombin; peptide 6.36E-05 uM", "result": "99.0 and 95.7 and 105.1"}, {"measurement": "Human alpha thrombin inhibition, slope normalized to DMSO", "setting": "human α-thrombin; peptide 6.51E-02 uM", "result": "92.9 and 89.5 and 93.7"}, {"measurement": "Human alpha thrombin inhibition, slope normalized to DMSO", "setting": "human α-thrombin; peptide 6.67E+01 uM", "result": "5.0 (2×) and 5.6"}, {"measurement": "Human alpha thrombin inhibition, slope normalized to DMSO", "setting": "human α-thrombin; peptide 8.14E-03 uM", "result": "98.2 and 94.5 and 89.6"}, {"measurement": "Human alpha thrombin inhibition, slope normalized to DMSO", "setting": "human α-thrombin; peptide 8.33E+00 uM", "result": "20.4 and 21.3 and 21.0"}, {"measurement": "Rat alpha thrombin inhibition, slope normalized to DMSO", "setting": "rat α-thrombin; [4]", "result": "2.5 and 3.0 and 16.1"}, {"measurement": "Rat alpha thrombin inhibition, slope normalized to DMSO", "setting": "rat α-thrombin; peptide 1.67E+01 uM", "result": "7.6 and 7.2 and 19.3"}, {"measurement": "Rat alpha thrombin inhibition, slope normalized to DMSO", "setting": "rat α-thrombin; peptide 2.08E+00 uM", "result": "36.1 and 33.7 and 41.7"}, {"measurement": "Slope normalized to DMSO (proteolytic substrate cleavage over time)", "setting": "rat α-thrombin; peptide 2.54E-04 uM", "result": "99.5 and 98.8"}, {"measurement": "Slope normalized to DMSO (proteolytic substrate cleavage over time)", "setting": "rat α-thrombin; peptide 3.18E-05 uM", "result": 98.9}, {"measurement": "Rat alpha thrombin inhibition, slope normalized to DMSO", "setting": "rat α-thrombin; peptide 3.33E+01 uM", "result": "4.5 and 3.9 and 18.0"}, {"measurement": "Rat alpha thrombin inhibition, slope normalized to DMSO", "setting": "rat α-thrombin; peptide 4.17E+00 uM", "result": "21.1 and 20.6 and 33.2"}, {"measurement": "Slope normalized to DMSO (proteolytic substrate cleavage over time)", "setting": "rat α-thrombin; peptide 6.36E-05 uM", "result": 99.5}, {"measurement": "Slope normalized to DMSO (proteolytic substrate cleavage over time)", "setting": "rat α-thrombin; peptide 6.51E-02 uM", "result": 99.3}, {"measurement": "Rat alpha thrombin inhibition, slope normalized to DMSO", "setting": "rat α-thrombin; peptide 6.67E+01 uM", "result": "2.7 and 2.5 and 17.0"}, {"measurement": "Slope normalized to DMSO (proteolytic substrate cleavage over time)", "setting": "rat α-thrombin; peptide 8.14E-03 uM", "result": "99.8 and 99.9"}, {"measurement": "Rat alpha thrombin inhibition, slope normalized to DMSO", "setting": "rat α-thrombin; peptide 8.33E+00 uM", "result": "14.3 and 13.8 and 26.6"}, {"measurement": "SGF stability, Residual peptide Average", "setting": "porcine pepsin; after 8 h vs 0 h (TIC), average of R1-R3", "result": 103.72}, {"measurement": "SGF stability, Residual peptide", "setting": "porcine pepsin; after 8 h vs 0 h (TIC), single replicates R1-R3", "result": "109.74 and 107.42 and 94.00"}, {"measurement": "remaining at 8 h", "setting": "porcine pepsin; simulated gi fluid, 8 h, 37 °C, pH 1.2, read-out: Proteolytic stability: SGF (8 h) % remaining", "result": "104 ± 8", "unit": "%"}, {"measurement": "remaining at 8 h", "setting": "[1]", "result": "96 ± 11", "unit": "%"}, {"measurement": "SIF stability, Residual peptide Average", "setting": "porcine pancreatin", "result": 95.61}, {"measurement": "PAMPA permeability: % permeability", "setting": "[2]; 50 μM, 12–18 h, acceptor concentration relative to equilibrium", "result": "2.0 ± 1.7", "unit": "%"}, {"measurement": "Papp at 50 μM", "setting": "[2]; PAMPA, pH 7.4", "result": 0.107, "unit": "×10⁻⁶ cm/s"}, {"measurement": "Permeability% Average", "setting": "[2]; PAMPA, average of R1-R3", "result": 2.0, "unit": "%"}, {"measurement": "Permeability% R1", "setting": "[2]; PAMPA, replicate R1, TIC of top well sample relative to sample at theoretical equilibrium", "result": 3.95, "unit": "%"}, {"measurement": "Permeability% R3", "setting": "[2]; PAMPA, replicate R3, TIC of top well sample relative to sample at theoretical equilibrium", "result": 1.45, "unit": "%"}, {"measurement": "microsomal CLint", "setting": "[3]; CL (ul/min/mg protein) R1, RLM CL, replicate R1", "result": 187, "unit": "µL/min/mg"}, {"measurement": "microsomal CLint", "setting": "[3]; CL (ul/min/mg protein) R2, RLM CL, replicate R2", "result": 117, "unit": "µL/min/mg"}, {"measurement": "microsomal CLint", "setting": "[3]; CL (ul/min/mg protein) R3, RLM CL, replicate R3", "result": 148, "unit": "µL/min/mg"}, {"measurement": "half-life", "setting": "[3]; Half Life (min) R1, RLM metabolic stability, replicate R1, 0-60 min", "result": 7.4, "unit": "min"}, {"measurement": "half-life", "setting": "[3]; Half Life (min) R2, RLM metabolic stability, replicate R2, 0-60 min", "result": 11.9, "unit": "min"}, {"measurement": "half-life", "setting": "[3]; Half Life (min) R3, RLM metabolic stability, replicate R3, 0-60 min", "result": 9.38, "unit": "min"}, {"measurement": "half-life", "setting": "[3]; Metabolic stability: Half life T1/2 (min), RLMs, mean and SD, three measurements", "result": "9.5 ± 1.8", "unit": "min"}, {"measurement": "microsomal CLint", "setting": "[3]; Metabolic stability: RLM CL (ul/min/mg), RLMs, mean and SD, three measurements", "result": "151 ± 29", "unit": "µL/min/mg"}, {"measurement": "microsomal CLint", "setting": "[3]; Metabolic stability: RLM CL Average, summary table, average of R1-R3", "result": 151, "unit": "µL/min/mg"}, {"measurement": "microsomal CLint", "setting": "[3]; Metabolic stability: RLM CL R1, summary table, rounded, replicate R1", "result": 187, "unit": "µL/min/mg"}, {"measurement": "microsomal CLint", "setting": "[3]; Metabolic stability: RLM CL R2, summary table, rounded, replicate R2", "result": 117, "unit": "µL/min/mg"}, {"measurement": "microsomal CLint", "setting": "[3]; Metabolic stability: RLM CL R3, summary table, rounded, replicate R3", "result": 148, "unit": "µL/min/mg"}]}]}
